{
  "source": "patent US20250261634A1",
  "about": "“LIQUID HERBICIDAL COMPOSITIONS” (priority 2021, published 2025)",
  "origin": "cited, not measured here",
  "system": "weeds",
  "details": "in vivo",
  "data": [
    {"smiles": "CP(=O)(O)CC[C@H](N)C(=O)O", "note": "(single isomer, unassigned) [L-isomer]", "values": [
      {"measurement": "herbicidal activity relative to the racemate", "value": "twice that of the racemate"}
    ]}
  ]
}
